Measured values: ChEMBL document CHEMBL1201862, “PubChem BioAssay data set” (2004)
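Growth conditions: 96-well plates. Treatment: test compound, 48 hours, 5 concentrations. Analysis: linear interpolation between bracketing concentrations; unreached endpoints set to highest concentration. Abbreviation: GI50, concentration required for 50% inhibition of growth.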 Active and inactive are the calls of the source. Cut-off read from the data, not from the text of the source: active = GI50 up to about 1.1 µM and inactive = higher.

What was measured:
Assay in all cases: NCI tumour cell line growth inhibition, 48 h
HOP-18 = system: HOP-18
KM-20L2 = system: KM-20L2
LXFL 529 = system: LXFL 529
DMS-273 = system: DMS-273
RXF 631 = system: RXF 631
DMS-114 = system: DMS-114
SNB-78 = system: SNB-78
XF498 = system: XF498
M19-MEL = system: M19-MEL

Row | Structure (SMILES) | GI50 (HOP-18) | GI50 (KM-20L2) | GI50 (LXFL 529) | GI50 (DMS-273) | GI50 (RXF 631) | GI50 (DMS-114) | GI50 (SNB-78) | GI50 (XF498) | GI50 (M19-MEL)
1 | Nc1ncnc2c1ncn2[C@]1(CO)C=C(CO)C(O)C1O (some centres undefined) | > 100 µM (inactive) | > 100 µM (inactive) | > 100 µM (inactive) | > 100 µM (inactive) | > 100 µM (inactive) | > 100 µM (inactive) | > 100 µM (inactive) | > 100 µM (inactive) | 
2 | CC(C)=CC1CC(=O)C1(C)Sc1ccccc1 (centres undefined) | > 100 µM (inactive) | 36.3 µM (inactive) | 42.7 µM (inactive) |  | 28 µM (inactive) | 16.6 µM (inactive) | 60.1 µM (inactive) | 37.7 µM (inactive) | 27.5 µM (inactive)
3 | COc1cc(C(C)O)c[n+](CCC2CNc3ccccc32)c1 (centres undefined) |  | 43 µM (inactive) | > 100 µM (inactive) | > 100 µM (inactive) |  | 91.4 µM (inactive) |  | > 100 µM (inactive) | > 100 µM (inactive)
4 | CC(C)COC1Sc2ccccc2S1 | 16.5 µM (inactive) | 17.5 µM (inactive) | 20.7 µM (inactive) | 19.8 µM (inactive) |  | 12.5 µM (inactive) | 27.9 µM (inactive) | > 10 µM (inactive) | 
5 | COc1ccc2c(-c3cc4ccccc4o3)cc(=O)oc2c1 | 48.6 µM (inactive) | > 100 µM (inactive) | > 76.2 µM (inactive) | 61.8 µM (inactive) | 36.9 µM (inactive) |  | 35.2 µM (inactive) | 21.3 µM (inactive) | > 100 µM (inactive)
6 | O=C(Nc1c(O)[nH]c(=S)[nH]c1=O)c1ccco1 | > 100 µM (inactive) | > 100 µM (inactive) | > 100 µM (inactive) |  |  | > 100 µM (inactive) | > 100 µM (inactive) |  | > 100 µM (inactive)
7 | O=C(N/C(=C\c1ccc(/C=C(\NC(=O)c2ccccc2)c2nc3c(O)nc(S)nc3[nH]2)cc1)c1nc2c(O)nc(S)nc2[nH]1)c1ccccc1 | > 100 µM (inactive) | > 100 µM (inactive) | 35.9 µM (inactive) | > 100 µM (inactive) | 62.4 µM (inactive) | 34.3 µM (inactive) | > 100 µM (inactive) | > 100 µM (inactive) | 
8 | O/N=C1/CCC/C1=C\c1ccccc1 | > 100 µM (inactive) | > 100 µM (inactive) | > 100 µM (inactive) | > 100 µM (inactive) |  |  | > 100 µM (inactive) | 29.9 µM (inactive) | > 10 µM (inactive)
9 | C=C(Br)C(C)(Cl)CCC(Br)C(C)(C)Br (centres undefined) | > 100 µM (inactive) |  | 83 µM (inactive) | 39.4 µM (inactive) |  | 25.4 µM (inactive) | > 100 µM (inactive) |  | 34 µM (inactive)
10 | Nc1nc2c3c(ncn3CC(O)CO2)n1 (centres undefined) | > 100 µM (inactive) | > 100 µM (inactive) | > 100 µM (inactive) | > 100 µM (inactive) | > 100 µM (inactive) | > 100 µM (inactive) | > 100 µM (inactive) |  | 6.31 µM (inactive)
11 | Cc1ccc(NC(=O)CCc2nc(N)nc(N)c2-c2ccccc2)cc1C | > 100 µM (inactive) | > 100 µM (inactive) | > 100 µM (inactive) | > 100 µM (inactive) | > 100 µM (inactive) | > 100 µM (inactive) | > 100 µM (inactive) | > 100 µM (inactive) | > 100 µM (inactive)
12 | CN(C)C(=O)c1ccc([N+](=O)[O-])cc1 |  | > 100 µM (inactive) | > 100 µM (inactive) | > 100 µM (inactive) |  | > 100 µM (inactive) | > 100 µM (inactive) |  | > 100 µM (inactive)
13 | N#C/C(=C\c1ccc(O)c(O)c1)c1c(C#N)c(N)nn1-c1ccccc1 | 1.04 µM (active) | 38.1 µM (inactive) | 8.65 µM (inactive) | 6.92 µM (inactive) |  |  | 14.6 µM (inactive) |  | 7.4 µM (inactive)
14 | Cc1cc(O)cc2oc(=O)c3c(O)cc(O)cc3c12 [ALTERNARIOL] | 26.8 µM (inactive) | 27.7 µM (inactive) | 59.6 µM (inactive) | 23 µM (inactive) |  | 34.4 µM (inactive) | 34.5 µM (inactive) | 27.1 µM (inactive) | 58.6 µM (inactive)
15 | CC[C@@]1(O)C(=O)OCc2c1cc1n(c2=O)Cc2cc3c(N)cccc3nc2-1 [9-AMINOCAMPTOTHECIN] | 0.0277 µM (active) | 0.0643 µM (active) | 0.244 µM (active) | < 0.01 µM (active) | 0.0375 µM (active) | < 0.01 µM (active) | 0.574 µM (active) | 0.143 µM (active) | 0.0198 µM (active)
16 | Cc1ccc(S(=O)(=O)OCC23CCC(C2)C2CC23)cc1 (centres undefined) | > 100 µM (inactive) | > 100 µM (inactive) | > 100 µM (inactive) | > 100 µM (inactive) |  | > 100 µM (inactive) |  |  | > 100 µM (inactive)
17 | CC1(C)OC2CC3COC(=O)C3CC2O1 (centres undefined) | > 100 µM (inactive) | > 100 µM (inactive) | > 100 µM (inactive) | > 100 µM (inactive) | > 100 µM (inactive) | > 100 µM (inactive) | > 100 µM (inactive) |  | > 100 µM (inactive)
18 | O=C(C[n+]1ccccc1)N/N=C(/CCC(=O)N(Cc1ccccc1)Cc1ccccc1)CC(=O)c1ccccc1 | > 100 µM (inactive) | > 100 µM (inactive) | > 100 µM (inactive) | > 100 µM (inactive) | > 100 µM (inactive) | > 100 µM (inactive) | > 100 µM (inactive) |  | > 100 µM (inactive)
19 | CC12O[C@H](c3ccccc3)[C@H](c3ccccc3)N1C(=O)C1(C(=O)OCc3ccccc3)CC12 (some centres undefined) |  | 25.1 µM (inactive) | 26.6 µM (inactive) | 80 µM (inactive) | > 100 µM (inactive) | 39.6 µM (inactive) |  | 78.9 µM (inactive) | > 100 µM (inactive)
